Source: patent US9340537B2, “Benzamide derivatives for inhibiting the activity of ABL1, ABL2 and BCR-ABL1” (NOVATIS AG, priority 2012, dated 2016)

Experiments:
[1] = biological target: T1, ABL1 (64-515) (Homo sapiens (Human), UniProt P00519); test: Caliper ABL1 (64-515) microfluidic mobility shift kinase assay; details: read-out: Caliper ABL1 (64-515) IC50
[2] = biological target: T1, ABL1 (64-515); test: Radio ABL1 (64-515) radiometric filter-binding kinase assay; format: biochemical; details: 20 μM ATP

T1 sequence (P00519 64-515): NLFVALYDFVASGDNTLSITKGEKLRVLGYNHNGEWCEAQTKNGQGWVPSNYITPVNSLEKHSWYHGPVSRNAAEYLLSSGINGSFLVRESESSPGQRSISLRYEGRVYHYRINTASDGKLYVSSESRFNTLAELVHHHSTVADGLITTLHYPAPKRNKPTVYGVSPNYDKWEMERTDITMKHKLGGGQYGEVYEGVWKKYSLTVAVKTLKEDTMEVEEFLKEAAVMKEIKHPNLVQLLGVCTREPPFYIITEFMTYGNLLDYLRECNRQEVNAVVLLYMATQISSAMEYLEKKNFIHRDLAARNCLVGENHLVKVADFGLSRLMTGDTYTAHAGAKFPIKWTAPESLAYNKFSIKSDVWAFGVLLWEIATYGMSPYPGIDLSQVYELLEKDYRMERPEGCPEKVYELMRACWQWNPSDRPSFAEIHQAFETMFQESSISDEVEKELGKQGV

IC50 [1] [nM]	IC50 [2] [nM]	SMILES
1.5	4	O=C(Nc1ccc(OC(F)(F)Cl)cc1)c1cnc(N2CCC[C@H](O)C2)c(-c2ccn[nH]2)c1 [Example 86, (S)—N-(4-(Chlorodifluoromethoxy)phenyl)-6-(3-hydroxypiperidin-1-yl)-5-(1H-pyrazol-5-yl)nicotinamide]
3.4	2.7	CN(CCO)c1ncc(C(=O)Nc2ccc(OC(F)(F)Cl)cc2)cc1-c1ccn[nH]1 [Example 23, N-(4-(Chlorodifluoromethoxy)phenyl)-6-((2-hydroxyethyl)(methyl)amino)-5-(1H-pyrazol-5-yl)nicotinamide]
1.3	3	O=C(Nc1ccc(OC(F)(F)Cl)cc1)c1cnc(N2CCC[C@@H](O)C2)c(-c2ccn[nH]2)c1 [Example 87, (R)—N-(4-(Chlorodifluoromethoxy)phenyl)-6-(3-hydroxypiperidin-1-yl)-5-(1H-pyrazol-5-yl)nicotinamide]
5.3	4	CC1(O)CN(c2ncc(C(=O)Nc3ccc(OC(F)(F)F)cc3)cc2-c2ccn[nH]2)C1 [Example 40, 6-(3-Hydroxy-3-methylazetidin-1-yl)-5-(1H-pyrazol-5-yl)-N-(4-(trifluoromethoxy)phenyl)nicotinamide]
4.5	3	O=C(Nc1ccc(OC(F)(F)F)cc1)c1cnc(N2CC(CO)C2)c(-c2ccn[nH]2)c1 [Example 39, 6-(3-(Hydroxymethyl)azetidin-1-yl)-5-(1H-pyrazol-5-yl)-N-(4-(trifluoromethoxy)phenyl)nicotinamide]
1.4	< 0.1	CN(C)[C@H]1CN(c2ncc(C(=O)Nc3ccc(OC(F)(F)Cl)cc3)cc2-c2ccn[nH]2)C[C@@H]1O [Example 53, N-(4-(Chlorodifluoromethoxy)phenyl)-6-((3S,4S)-3-(dimethylamino)-4-hydroxypyrrolidin-1-yl)-5-(1H-pyrazol-5-yl)nicotinamide]
2.6	3.7	O=C(Nc1ccc(SC(F)(F)F)cc1)c1cnc(N2CC[C@@H](O)C2)c(-c2ccc[nH]2)c1 [Example 25, (R)-6-(3-Hydroxypyrrolidin-1-yl)-5-(1H-pyrrol-2-yl)-N-(4-((trifluoromethyl)thio)phenyl)nicotinamide]
5	3	NC12CC1CN(c1ncc(C(=O)Nc3ccc(OC(F)(F)F)cc3)cc1-c1ccn[nH]1)C2 (centres unmarked) [Example 33, 6-(1-Amino-3-azabicyclo[3.1.0]hexan-3-yl)-5-(1H-pyrazol-5-yl)-N-(4-(trifluoromethoxy)phenyl)nicotinamide]
5	< 3	CN(CCO)c1ccc(C(=O)Nc2ccc(OC(F)(F)F)cc2)cc1-c1cncs1 [Example 20, 4-((2-Hydroxyethyl)(methyl)amino)-3-(thiazol-5-yl)-N-(4-(trifluoromethoxy)phenyl)benzamide]
8.1	5	O=C(Nc1ccc(OC(F)(F)F)cc1)c1cnc(N2CCOC(CO)C2)c(-c2ccn[nH]2)c1 (centres unmarked) [Example 36, 6-(2-(Hydroxymethyl)morpholino)-5-(1H-pyrazol-5-yl)-N-(4-(trifluoromethoxy)phenyl)nicotinamide]
7.1	19	N#Cc1cc(-c2cc(C(=O)Nc3ccc(OC(F)(F)F)cc3)cnc2N2CCCC2)[nH]n1 [Example 44, 5-(3-Cyano-1H-pyrazol-5-yl)-6-(pyrrolidin-1-yl)-N-(4-(trifluoromethoxy)phenyl)nicotinamide]
2.4	5.7	O=C(Nc1ccc(OC(F)(F)Cl)cc1)c1cnc(N2CCN(CCF)CC2)c(-c2ccn[nH]2)c1 [Example 58, N-(4-(Chlorodifluoromethoxy)phenyl)-6-(4-(2-fluoroethyl)piperazin-1-yl)-5-(1H-pyrazol-5-yl)nicotinamide]
1	11	CN(CCO)c1ncc(C(=O)Nc2ccc(SC(F)(F)F)cc2)cc1-c1ccn[nH]1 [Example 26, 6-((2-Hydroxyethyl)(methyl)amino)-5-(1H-pyrazol-5-yl)-N-(4-((trifluoromethyl)thio)phenyl)nicotinamide]
